Kd data for eleven compounds are collected here from ChEMBL document CHEMBL3991601, “The target landscape of clinical kinase drugs” (Science, 2017).

By Kd is commonly meant the constant that tells how readily two partners part at equilibrium.

The target in assay [1] is T1, Peroxisomal acyl-coenzyme A oxidase 1 (Homo sapiens, UniProt Q15067).
T1 sequence (Q15067 whole entry): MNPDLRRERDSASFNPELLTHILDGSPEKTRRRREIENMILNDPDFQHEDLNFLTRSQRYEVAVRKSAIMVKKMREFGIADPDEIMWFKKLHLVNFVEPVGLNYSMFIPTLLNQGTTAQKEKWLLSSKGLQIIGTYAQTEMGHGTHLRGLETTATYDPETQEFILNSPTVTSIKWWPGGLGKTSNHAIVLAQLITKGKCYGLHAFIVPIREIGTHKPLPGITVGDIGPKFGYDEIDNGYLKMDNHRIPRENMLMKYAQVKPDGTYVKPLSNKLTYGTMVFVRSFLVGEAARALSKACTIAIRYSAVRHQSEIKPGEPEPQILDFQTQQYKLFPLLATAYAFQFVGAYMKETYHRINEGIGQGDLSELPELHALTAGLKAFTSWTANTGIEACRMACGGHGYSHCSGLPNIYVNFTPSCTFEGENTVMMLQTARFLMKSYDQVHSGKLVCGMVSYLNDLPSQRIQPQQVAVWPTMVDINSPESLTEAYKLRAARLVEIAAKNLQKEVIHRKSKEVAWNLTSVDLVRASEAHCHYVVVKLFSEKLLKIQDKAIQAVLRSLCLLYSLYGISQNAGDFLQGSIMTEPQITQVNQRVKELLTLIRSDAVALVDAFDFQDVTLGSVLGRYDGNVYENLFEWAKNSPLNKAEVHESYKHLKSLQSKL

Assay [2] has as its target Calcium/calmodulin-dependent protein kinase kinase 2 (Homo sapiens, UniProt Q96RR4).
Assay [3] deals with Citron Rho-interacting kinase (Homo sapiens, UniProt O14578).
Assay [4] deals with Casein kinase II subunit alpha' (Homo sapiens, UniProt P19784).
Chain of Casein kinase II subunit alpha' (P19784 whole entry): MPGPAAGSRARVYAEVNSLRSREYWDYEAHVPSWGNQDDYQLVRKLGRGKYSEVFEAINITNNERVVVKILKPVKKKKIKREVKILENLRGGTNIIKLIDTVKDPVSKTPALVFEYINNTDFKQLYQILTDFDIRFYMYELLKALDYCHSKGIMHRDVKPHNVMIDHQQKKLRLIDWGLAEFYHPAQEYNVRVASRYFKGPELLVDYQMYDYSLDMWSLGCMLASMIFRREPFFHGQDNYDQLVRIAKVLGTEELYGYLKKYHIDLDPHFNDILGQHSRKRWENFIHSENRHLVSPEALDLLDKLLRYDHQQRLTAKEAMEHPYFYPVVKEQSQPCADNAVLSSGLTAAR
Assay [5] addresses T2, Phenylalanine--tRNA ligase beta subunit (Homo sapiens, UniProt Q9NSD9).
T2 sequence (Q9NSD9 whole entry): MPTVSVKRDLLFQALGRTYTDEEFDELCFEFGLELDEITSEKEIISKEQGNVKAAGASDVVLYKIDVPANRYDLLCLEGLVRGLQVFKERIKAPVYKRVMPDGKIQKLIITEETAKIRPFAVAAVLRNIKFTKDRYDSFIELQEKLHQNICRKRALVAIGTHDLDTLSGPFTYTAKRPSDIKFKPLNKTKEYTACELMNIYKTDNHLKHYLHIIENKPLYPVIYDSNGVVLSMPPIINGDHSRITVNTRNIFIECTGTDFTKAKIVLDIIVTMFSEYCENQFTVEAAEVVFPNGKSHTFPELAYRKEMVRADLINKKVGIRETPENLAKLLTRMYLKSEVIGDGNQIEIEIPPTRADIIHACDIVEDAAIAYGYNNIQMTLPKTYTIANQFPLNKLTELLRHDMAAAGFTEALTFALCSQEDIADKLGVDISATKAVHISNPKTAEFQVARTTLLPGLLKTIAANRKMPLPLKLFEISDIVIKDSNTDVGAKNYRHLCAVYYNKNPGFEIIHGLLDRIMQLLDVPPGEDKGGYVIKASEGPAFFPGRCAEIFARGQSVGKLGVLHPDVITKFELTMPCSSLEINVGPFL

The target of assay [6] is Tyrosine-protein kinase FRK (Homo sapiens, UniProt P42685).
Chain of Tyrosine-protein kinase FRK (P42685 whole entry): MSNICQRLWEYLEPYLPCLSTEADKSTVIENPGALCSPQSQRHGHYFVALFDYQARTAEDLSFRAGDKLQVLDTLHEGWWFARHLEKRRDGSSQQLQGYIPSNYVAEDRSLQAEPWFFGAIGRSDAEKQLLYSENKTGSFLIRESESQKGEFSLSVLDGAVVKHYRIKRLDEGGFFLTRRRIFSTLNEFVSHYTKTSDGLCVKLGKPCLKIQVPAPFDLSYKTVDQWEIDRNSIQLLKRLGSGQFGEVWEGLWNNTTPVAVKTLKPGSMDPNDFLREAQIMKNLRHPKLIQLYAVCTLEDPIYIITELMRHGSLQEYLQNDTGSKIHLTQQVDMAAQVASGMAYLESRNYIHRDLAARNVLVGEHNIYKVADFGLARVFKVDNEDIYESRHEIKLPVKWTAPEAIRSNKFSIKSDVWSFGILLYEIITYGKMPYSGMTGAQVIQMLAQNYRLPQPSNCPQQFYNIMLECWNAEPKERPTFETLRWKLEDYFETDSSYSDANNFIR
The target in assay [7] is T3, Dual specificity mitogen-activated protein kinase kinase 3 (Homo sapiens, UniProt P46734).
T3 sequence (P46734 whole entry): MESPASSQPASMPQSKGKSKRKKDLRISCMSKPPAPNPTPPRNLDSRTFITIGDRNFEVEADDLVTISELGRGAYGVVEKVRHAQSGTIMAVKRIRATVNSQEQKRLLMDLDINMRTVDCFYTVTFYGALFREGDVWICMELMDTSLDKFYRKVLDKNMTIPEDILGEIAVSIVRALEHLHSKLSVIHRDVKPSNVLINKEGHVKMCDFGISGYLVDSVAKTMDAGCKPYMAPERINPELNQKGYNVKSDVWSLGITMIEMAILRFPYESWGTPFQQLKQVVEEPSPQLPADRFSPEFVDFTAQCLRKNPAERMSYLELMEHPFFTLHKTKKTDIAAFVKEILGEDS

Assay [8] concerns the target Mitogen-activated protein kinase kinase kinase 4 (Homo sapiens, UniProt Q9Y6R4).
Assay [9] concerns the target Mitogen-activated protein kinase 9 (Homo sapiens, UniProt P45984).
In assay [10] the target is Serine/threonine-protein kinase N2 (Homo sapiens, UniProt Q16513).
Chain of Serine/threonine-protein kinase N2 (Q16513 whole entry): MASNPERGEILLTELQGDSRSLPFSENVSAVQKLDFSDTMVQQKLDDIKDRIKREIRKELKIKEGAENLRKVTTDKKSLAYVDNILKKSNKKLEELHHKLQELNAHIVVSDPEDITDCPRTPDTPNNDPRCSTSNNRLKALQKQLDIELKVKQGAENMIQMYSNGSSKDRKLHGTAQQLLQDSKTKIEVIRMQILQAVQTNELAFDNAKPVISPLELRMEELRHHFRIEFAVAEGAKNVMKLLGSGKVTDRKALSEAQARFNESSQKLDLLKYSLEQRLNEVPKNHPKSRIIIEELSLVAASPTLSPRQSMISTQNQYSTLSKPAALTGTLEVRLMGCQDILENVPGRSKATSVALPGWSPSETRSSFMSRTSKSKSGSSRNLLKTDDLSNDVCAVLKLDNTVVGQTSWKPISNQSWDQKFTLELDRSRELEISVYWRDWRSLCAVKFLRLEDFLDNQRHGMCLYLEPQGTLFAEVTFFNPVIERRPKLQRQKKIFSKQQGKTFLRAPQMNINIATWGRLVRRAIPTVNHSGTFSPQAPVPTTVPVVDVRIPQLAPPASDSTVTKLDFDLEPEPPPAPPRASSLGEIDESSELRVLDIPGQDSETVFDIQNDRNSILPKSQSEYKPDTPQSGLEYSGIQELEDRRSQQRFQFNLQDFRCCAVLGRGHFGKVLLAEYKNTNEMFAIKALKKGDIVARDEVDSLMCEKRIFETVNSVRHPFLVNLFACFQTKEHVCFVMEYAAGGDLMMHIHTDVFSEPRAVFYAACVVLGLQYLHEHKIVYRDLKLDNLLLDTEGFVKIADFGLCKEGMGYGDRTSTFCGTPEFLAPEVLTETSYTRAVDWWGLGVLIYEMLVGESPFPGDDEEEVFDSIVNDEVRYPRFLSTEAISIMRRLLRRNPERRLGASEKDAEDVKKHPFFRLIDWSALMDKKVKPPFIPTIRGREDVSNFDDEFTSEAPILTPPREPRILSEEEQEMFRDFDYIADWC
For assay [11], the target named is T4, EKC/KEOPS complex subunit TP53RK (Homo sapiens, UniProt Q96S44).
T4 sequence (Q96S44 whole entry): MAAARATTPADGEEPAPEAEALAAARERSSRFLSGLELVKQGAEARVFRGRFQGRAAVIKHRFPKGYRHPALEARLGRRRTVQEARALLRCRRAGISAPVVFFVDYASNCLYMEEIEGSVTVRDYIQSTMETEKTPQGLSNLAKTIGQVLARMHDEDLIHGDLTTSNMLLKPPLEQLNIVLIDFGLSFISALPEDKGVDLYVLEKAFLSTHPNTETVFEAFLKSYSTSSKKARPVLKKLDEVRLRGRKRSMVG

Calls of active or inactive are those of the source. Cut-off read from the data, not from the text of the source, for most assays here: actives have a measured Kd and inactives only a lower limit.
Note: in the data inactive means no Kd found up to 30 µM.

Chain of Mitogen-activated protein kinase 9 (P45984 whole entry): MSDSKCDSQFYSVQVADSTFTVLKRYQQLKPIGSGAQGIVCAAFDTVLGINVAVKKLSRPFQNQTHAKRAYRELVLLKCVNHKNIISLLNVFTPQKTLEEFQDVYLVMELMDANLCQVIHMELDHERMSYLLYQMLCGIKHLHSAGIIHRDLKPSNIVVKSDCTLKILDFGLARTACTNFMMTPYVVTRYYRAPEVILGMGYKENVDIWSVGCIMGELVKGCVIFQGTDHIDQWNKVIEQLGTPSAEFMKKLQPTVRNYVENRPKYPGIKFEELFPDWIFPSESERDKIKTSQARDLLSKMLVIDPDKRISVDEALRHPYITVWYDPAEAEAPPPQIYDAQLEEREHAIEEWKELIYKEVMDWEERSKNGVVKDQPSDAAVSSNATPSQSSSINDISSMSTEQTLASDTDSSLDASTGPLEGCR
Chain of Mitogen-activated protein kinase kinase kinase 4 (Q9Y6R4 whole entry): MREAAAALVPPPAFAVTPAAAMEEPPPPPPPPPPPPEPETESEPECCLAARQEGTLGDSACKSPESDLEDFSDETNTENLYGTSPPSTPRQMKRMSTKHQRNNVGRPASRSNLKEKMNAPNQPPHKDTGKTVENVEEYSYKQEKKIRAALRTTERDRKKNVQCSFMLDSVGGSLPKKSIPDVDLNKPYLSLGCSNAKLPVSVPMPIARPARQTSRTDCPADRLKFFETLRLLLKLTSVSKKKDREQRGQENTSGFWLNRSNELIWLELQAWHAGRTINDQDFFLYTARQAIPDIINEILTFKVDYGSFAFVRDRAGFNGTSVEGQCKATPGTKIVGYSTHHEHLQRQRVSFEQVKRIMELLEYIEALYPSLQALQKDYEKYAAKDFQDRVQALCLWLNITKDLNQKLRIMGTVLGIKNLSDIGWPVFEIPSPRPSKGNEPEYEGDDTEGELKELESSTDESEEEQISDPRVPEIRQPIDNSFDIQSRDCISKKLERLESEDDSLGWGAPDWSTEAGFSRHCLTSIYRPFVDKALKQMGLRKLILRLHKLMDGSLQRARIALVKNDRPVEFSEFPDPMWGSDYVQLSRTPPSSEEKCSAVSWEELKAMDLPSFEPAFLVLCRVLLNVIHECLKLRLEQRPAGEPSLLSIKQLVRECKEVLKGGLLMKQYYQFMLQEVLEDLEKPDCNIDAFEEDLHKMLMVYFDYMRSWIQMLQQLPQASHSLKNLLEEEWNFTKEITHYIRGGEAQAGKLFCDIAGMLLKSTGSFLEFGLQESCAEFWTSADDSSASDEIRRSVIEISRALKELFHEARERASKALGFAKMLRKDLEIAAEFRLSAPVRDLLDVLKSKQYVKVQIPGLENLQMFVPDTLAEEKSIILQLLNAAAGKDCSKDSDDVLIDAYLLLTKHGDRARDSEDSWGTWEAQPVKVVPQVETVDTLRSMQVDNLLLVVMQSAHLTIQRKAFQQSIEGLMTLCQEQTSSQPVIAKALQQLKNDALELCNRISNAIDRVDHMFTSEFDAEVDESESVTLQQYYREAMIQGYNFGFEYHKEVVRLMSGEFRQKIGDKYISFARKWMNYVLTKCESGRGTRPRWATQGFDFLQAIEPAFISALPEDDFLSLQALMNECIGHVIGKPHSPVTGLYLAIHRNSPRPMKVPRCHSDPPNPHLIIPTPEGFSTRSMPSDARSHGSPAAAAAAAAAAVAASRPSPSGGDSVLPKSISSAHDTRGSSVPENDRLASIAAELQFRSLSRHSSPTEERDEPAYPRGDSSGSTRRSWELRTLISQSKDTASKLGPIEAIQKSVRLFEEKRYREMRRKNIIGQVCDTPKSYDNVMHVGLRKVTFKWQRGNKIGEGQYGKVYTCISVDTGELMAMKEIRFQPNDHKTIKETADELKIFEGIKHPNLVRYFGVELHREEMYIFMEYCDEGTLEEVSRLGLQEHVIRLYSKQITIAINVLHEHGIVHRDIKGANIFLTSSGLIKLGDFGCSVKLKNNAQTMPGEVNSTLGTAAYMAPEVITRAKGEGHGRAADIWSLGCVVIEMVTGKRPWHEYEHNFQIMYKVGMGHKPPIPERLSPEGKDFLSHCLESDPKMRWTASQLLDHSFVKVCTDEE
Chain of Calcium/calmodulin-dependent protein kinase kinase 2 (Q96RR4 whole entry): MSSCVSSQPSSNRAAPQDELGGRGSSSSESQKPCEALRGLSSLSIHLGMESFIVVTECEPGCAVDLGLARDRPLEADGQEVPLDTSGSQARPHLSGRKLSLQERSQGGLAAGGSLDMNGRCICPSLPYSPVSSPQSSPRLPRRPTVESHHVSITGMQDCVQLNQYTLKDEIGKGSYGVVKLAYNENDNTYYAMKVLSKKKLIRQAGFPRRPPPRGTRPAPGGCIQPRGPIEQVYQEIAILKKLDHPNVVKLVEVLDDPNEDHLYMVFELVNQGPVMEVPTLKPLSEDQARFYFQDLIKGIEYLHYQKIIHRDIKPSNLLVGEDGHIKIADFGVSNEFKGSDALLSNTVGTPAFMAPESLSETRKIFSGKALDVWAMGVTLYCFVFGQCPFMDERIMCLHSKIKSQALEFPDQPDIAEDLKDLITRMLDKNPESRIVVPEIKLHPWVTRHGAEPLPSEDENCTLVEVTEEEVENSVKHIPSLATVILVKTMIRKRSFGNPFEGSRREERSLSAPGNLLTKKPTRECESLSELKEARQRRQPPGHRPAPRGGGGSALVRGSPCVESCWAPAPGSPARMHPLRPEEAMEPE

`C1=C/COCc2cc(ccc2OCCN2CCCC2)Nc2nccc(n2)-c2cccc(c2)COC/1` [PACRITINIB]: the Kd in [1] is > 30 µM (inactive); in assay [2], 7.69 µM (active); in assay [3], > 30 µM (inactive); in [4], 0.394 µM (active); in assay [5] it was > 30 µM (inactive); in [6] it was > 30 µM (inactive). The Kd in assay [7], in assay [8], in [9], in [10] and in assay [11] was > 30 µM (inactive) in each case.

As to `C[C@@H]1CN(Cc2ccc(F)cc2)[C@@H](C)CN1C(=O)c1cc2c(C(=O)C(=O)N(C)C)cn(C)c2cc1Cl` [TALMAPIMOD], the Kd in [1], in [2], in assay [3], in [4], in assay [5] and in assay [6] was > 30 µM (inactive) in each case. Further, the Kd in [7], in [8], in assay [9], in assay [10] and in assay [11] was > 30 µM (inactive) each time.

On to `CN1CCC(COc2cnc(-c3cccc(Cn4nc(-c5cccc(C#N)c5)ccc4=O)c3)nc2)CC1` [TEPOTINIB], for which the Kd in assay [1], in assay [2], in [3], in [4], in assay [5] and in [6] was > 30 µM (inactive) in each case. Also, the Kd in [7], in assay [8], in [9], in assay [10] and in assay [11] was > 30 µM (inactive) throughout.

In the case of `COc1cc2nccc(Oc3ccc(NC(=O)NC4CC4)c(Cl)c3)c2cc1C(N)=O` [LENVATINIB], the Kd in [1], in assay [2], in assay [3], in assay [4], in [5] and in assay [6] was > 30 µM (inactive) in each case. In addition, the Kd in [7], in assay [8], in assay [9], in [10] and in assay [11] was > 30 µM (inactive) each time.

As for `C[C@@H](c1ccc2nccn2c1)n1nnc2ncc(-c3cnn(C)c3)nc21` [SAVOLITINIB], the Kd in assay [1], in assay [2], in assay [3], in assay [4], in assay [5] and in assay [6] was > 30 µM (inactive) each time. For the same compound, the Kd in assay [7], in [8], in assay [9], in [10] and in assay [11] was > 30 µM (inactive) in each case.

With `N[C@@H]1CCCN(c2c(/C=C3\SC(=O)NC3=O)cccc2-c2ccccc2)C1`, the Kd was > 30 µM (inactive) in [1]; > 30 µM (inactive) in [2]; > 30 µM (inactive) in [3]; 3.02 µM (active) in assay [4]; > 30 µM (inactive) in assay [5]; > 30 µM (inactive) in assay [6]. The Kd in assay [7], in [8], in assay [9], in assay [10] and in [11] was > 30 µM (inactive) each time.

Take `COc1cc(N2CCC(N3CCN(C)CC3)CC2)ccc1Nc1ncnc(Nc2ccccc2S(=O)(=O)C(C)C)n1` [ASP-3026]: the Kd was > 30 µM (inactive) in assay [1]; 9.13 µM (active) in assay [2]; > 30 µM (inactive) in assay [3]; > 30 µM (inactive) in assay [4]; > 30 µM (inactive) in [5]; 0.39 µM (active) in assay [6]. Further, the Kd in [7], in assay [8], in assay [9], in assay [10] and in assay [11] was > 30 µM (inactive) in each case.

Turning to `Cc1cc([C@@H](C)Nc2ccccc2C(=O)O)c2nc(N3CCOCC3)cc(=O)n2c1` [AZD-6482], the Kd in assay [1], in assay [2], in assay [3], in assay [4], in assay [5] and in assay [6] was > 30 µM (inactive) throughout. The Kd in assay [7], in assay [8], in assay [9], in assay [10] and in assay [11] was > 30 µM (inactive) each time.

For `CN1CCC(CNc2ccc3ncc(-c4cccc(OC(F)(F)F)c4)n3n2)CC1` [SGI-1776], the Kd is > 30 µM (inactive) in assay [1]; > 30 µM (inactive) in [2]; > 30 µM (inactive) in assay [3]; 7.92 µM (active) in assay [4]; > 30 µM (inactive) in assay [5]; > 30 µM (inactive) in [6]. Further, the Kd in assay [7], in assay [8], in assay [9], in [10] and in assay [11] was > 30 µM (inactive) in each case.

Consider `CC(C)Nc1cc(-c2c[nH]c(C(=O)N[C@H](CO)c3cccc(Cl)c3)c2)c(Cl)cn1` [ULIXERTINIB], for which the Kd in assay [1], in [2], in [3], in assay [4], in [5] and in assay [6] was > 30 µM (inactive) throughout. Moreover, the Kd in assay [7], in [8], in assay [9], in [10] and in assay [11] was > 30 µM (inactive) each time.

For `O=c1sn(-c2cccc3ccccc23)c(=O)n1Cc1ccccc1` [TIDEGLUSIB], the Kd in [1], in [2], in assay [3], in assay [4], in [5] and in [6] was > 30 µM (inactive) each time. The Kd in [7], in assay [8], in [9], in [10] and in assay [11] was > 30 µM (inactive) in each case.
